Data: patent publication US6946480B2, “Glutaminyl based DPIV inhibitors” (priority 2002, dated 2005)

Legend:
Type in all cases: biochemical
[1] = target: T1, Dipeptidyl Peptidase I (DP I, Cathepsin C) (Rattus norvegicus, UniProt P80067); assay: Cross reacting enzymes - dipeptidyl peptidase I; conditions: concentration range 1*10^−5 M-1*10^−7 M
T1 construct: purchased Qiagen GmbH, Hilden, Germany
Protocol: (§1) Glutaminyl pyrrolidine or glutaminyl thiazolidine were tested for their cross reacting potency against dipeptidyl peptidase I, prolyl oligopeptidase and prolidase.
DP I or cathepsin C is a lysosomal cysteine protease which cleaves off dipeptides from the N-terminus of their substrates (Gutman, H. R. & Fruton, J. S., 1948, J. Biol: Chem., 174, 851-858) . It is classified as a cysteine protease.
The enzyme used was purchased from Qiagen (Qiagen GmbH, Hilden, Germany). In order to get a fully active enzyme, the enzyme was diluted 1000fold in MES buffer pH5,6 (40 mM MES, 4 mM DTT, 4 mM KCl, 2 mM EDTA, 0.015% Brij) and pre-incubated for 30 min at 30° C.
50 μl glutaminyl pyrrolidine or glutaminyl thiazolidine in a concentration range of 1*10^−5 M-1*10^−7 M were admixed with 110 μl buffer-enzyme-mixture. The assay mixture was pre-incubated at 30° C. for 15 min After pre-incubation, 100 μl histidylseryl-β-nitroaniline (2*10^−5 M) were added and measurement of yellow color development due to β-nitroaniline release was performed at 30° C. and […] for 10 min, using a plate reader (HTS7000 plus, Applied Biosystems, Weiterstadt, Germany).
(§2) The IC50-values were calculated using Graphit 4.0.15 (Erithacus Software, Ltd., UK).

[2] = target: T2, recombinant human prolyl oligopeptidase (POP) (Homo sapiens, UniProt P48147); assay: Cross reacting enzymes - prolyl oligopeptidase; conditions: concentration range 1*10^−4 M-5*10^−8 M
T2 construct: made in house; host or cells: E. coli
T2 sequence (P48147 1-710): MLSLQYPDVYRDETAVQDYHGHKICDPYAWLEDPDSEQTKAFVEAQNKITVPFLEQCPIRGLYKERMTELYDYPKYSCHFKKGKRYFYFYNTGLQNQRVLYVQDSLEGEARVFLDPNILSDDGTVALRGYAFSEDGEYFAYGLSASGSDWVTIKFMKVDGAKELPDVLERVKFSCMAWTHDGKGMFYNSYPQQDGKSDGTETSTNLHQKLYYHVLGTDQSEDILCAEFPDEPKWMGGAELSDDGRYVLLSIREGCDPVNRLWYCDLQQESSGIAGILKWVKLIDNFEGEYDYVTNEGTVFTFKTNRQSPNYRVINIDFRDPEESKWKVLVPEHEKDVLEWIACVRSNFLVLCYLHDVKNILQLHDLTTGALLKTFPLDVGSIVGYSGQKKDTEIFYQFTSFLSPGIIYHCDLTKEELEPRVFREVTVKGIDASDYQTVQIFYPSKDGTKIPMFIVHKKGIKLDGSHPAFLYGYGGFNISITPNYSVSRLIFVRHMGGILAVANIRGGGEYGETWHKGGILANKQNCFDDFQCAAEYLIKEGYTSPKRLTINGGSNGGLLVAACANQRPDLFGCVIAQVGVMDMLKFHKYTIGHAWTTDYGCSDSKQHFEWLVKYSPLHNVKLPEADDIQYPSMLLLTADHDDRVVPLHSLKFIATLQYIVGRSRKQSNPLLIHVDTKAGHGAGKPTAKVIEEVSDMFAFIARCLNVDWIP
Protocol: as §1
Substrates are peptides with a molecular weight up to 3000 Da.
The enzyme used was a recombinant human prolyl oligopeptidase. Recombinant expression was performed in E. coli under standard conditions as described elsewhere in the state of the art.
100 μl glutaminyl pyrrolidine or glutaminyl thiazolidine in an concentration range of 1*10^−4 M-5*10^−8 M were admixed with 100 μl μl buffer solution (40 mM HEPES, pH7.6, 0.015% Brij, 1 mM DTT) and 20 μl POP solution. The assay mixture was pre-incubated at 30° C. for 15 min After pre-incubation, 50 μl glycylprolylprolyl-4-nitroaniline solution (0.29 mM) were added and measurement of yellow color development due to 4-nitroaniline release was performed at 30° C. and λ=405 nm for 10 min using a plate reader (sunrise, Tecan, Crailsheim, Germany).
as §2

[3] = target: T3, Prolidase from porcine kidney (Sus scrofa, UniProt A0A5G2QQV1); assay: Cross reacting enzymes - prolidase
T3 sequence (A0A5G2QQV1 1-463): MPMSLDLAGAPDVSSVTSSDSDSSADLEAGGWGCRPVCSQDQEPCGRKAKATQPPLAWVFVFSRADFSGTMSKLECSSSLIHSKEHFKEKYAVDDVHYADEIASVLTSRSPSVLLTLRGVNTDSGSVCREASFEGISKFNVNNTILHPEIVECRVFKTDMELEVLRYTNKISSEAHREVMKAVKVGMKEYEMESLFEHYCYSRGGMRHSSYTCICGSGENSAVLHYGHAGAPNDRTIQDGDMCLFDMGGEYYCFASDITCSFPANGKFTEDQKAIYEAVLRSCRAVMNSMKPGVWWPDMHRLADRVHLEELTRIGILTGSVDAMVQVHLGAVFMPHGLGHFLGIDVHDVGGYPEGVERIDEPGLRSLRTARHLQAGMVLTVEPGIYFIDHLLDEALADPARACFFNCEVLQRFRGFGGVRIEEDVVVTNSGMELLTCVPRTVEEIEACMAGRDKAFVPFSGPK
Protocol: as §1
Prolidase (EC 3.4.13.9) was first described by Bergmann & Fruton (Bergmann, M. & Fruton, J S, 1937, J. Biol. Chem. 189-202). Prolidase releases the N-terminal amino acid from Xaa-Pro dipeptides and has a pH optimum between 6 and 9.
Prolidase from porcine kidney (ICN Biomedicals, Eschwege, Germany). was solved (1 mg/ml) in assay buffer (20 mM NH4(CH3COO)2, 3 mM MnCl2, pH 7.6). In order to get a fully active enzyme the solution was incubated for 60 min at room temperature.
450 μl glutaminyl pyrrolidine or glutaminyl thiazolidine in an concentration range of 5*10^−3 M-5*10^−7 M were admixed with 500 μl buffer solution (20 mM NH4(CH3COO)2, pH 7.6) and 250 μl lle-Pro-OH (0.5 mM in the assay mixture). The assay mixture was pre-incubated at 30° C. for 5 min After pre-incubation, 75 μl Prolidase (1:10 diluted in assay buffer) were added and measurement was performed at 30° C. and λ=220 nm for 20 min using a UV/Vis photometer, UV1 (Thermo Spectronic, Cambridge, UK).
as §2

T1 sequence (P80067 25-134 limits assumed): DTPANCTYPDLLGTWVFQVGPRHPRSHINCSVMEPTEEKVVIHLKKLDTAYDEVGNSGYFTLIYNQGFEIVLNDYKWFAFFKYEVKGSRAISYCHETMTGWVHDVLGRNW
T1 sequence (P80067 230-393 limits assumed): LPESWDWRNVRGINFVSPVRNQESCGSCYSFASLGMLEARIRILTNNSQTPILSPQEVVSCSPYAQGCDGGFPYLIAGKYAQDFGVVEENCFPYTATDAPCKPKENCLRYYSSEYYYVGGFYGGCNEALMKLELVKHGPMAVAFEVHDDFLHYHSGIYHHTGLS
T1 sequence (P80067 394-462 limits assumed): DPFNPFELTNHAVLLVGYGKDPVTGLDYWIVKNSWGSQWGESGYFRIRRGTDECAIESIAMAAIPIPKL

NC(=O)CC[C@H](N)C(=O)N1CCCC1 [glutaminyl pyrrolidine]
inhibition of DP I enzyme activity [1]: no inhibition | inhibition of POP activity [2]: no inhibition | efficacy against prolidase compared to DPIV [3]: marked lower efficacy
